Source: US6028197A, “Dibenzo[a,g]quinolizinium derivatives and the salts thereof” (Hanwha Corporation, priority 1998, dated 2000)

How the values were obtained:
HepG2 cells = experiment: Cholesterol biosynthesis in cultured human liver cell line ([1,2-14C]acetate incorporation); assay type: cell-based; conditions: compared with AY9944 (comparative drug)
Experimental: Cultured human liver HepG2 cell line was grown on RPMI (Rosewell park Memorial Institute) 1640 culture medium containing 10% PBS until 60% of monolayer are formed in a 60 mm culture dish. After replacing the medium with 3 ml of a fresh culture medium containing 10% (v/v) LPDS (Fetal calf lipoprotein-deficient serum), the cells were further grown for 48 hours until 90% of cultivation degree appear The culture medium was removed and the cell was then washed with PBS. 2 ml of culture medium containing compound no. 2 (final concentration 100 μM) and AY-9944 (final concentration 1 μM) were added thereto. Then, the medium was cultivated at 37° C. for 1 hour under the condition of 95% air/5% carbonic acid gas. AY-9944 which is an inhibitor for sterol 7-reductase was used as a control drug for assuring the present experimental procedure on the inhibition of cholesterol biosynthesis. Thereafter, 3 μCi of [1,2-^14 C]acetate (72 mCi/mmol) were added thereto. The cultivation was continued for 2 hours so that the isotope is introduced into the cell and used as a precursor for sterol to be synthesized. Then, the culture medium was completely removed and washed with PBS twice and the cells were collected by scratching. 10 μg of cholesterol, 10 μg of lanosterol and [^3 H]cholesterol (30,000 dpm) were added thereto, and saponification reaction was carried out at 70° C. for an hour by adding 7.5% of methanolic KOH solution. Unsaponified sterol was removed by extracting them three times with 3 ml of petroleum ether and dried with nitrogen purging. The dried samples were redissolved in 200 μl of chloroform. An aliquot of the samples was loaded onto Silicagel 60F thin layer plate and then separated using ethyl acetate/hexane 25/75 (v/v) as the developing solvent. The thin layer film was developed by exposure to Amersham Hyperfilm at -70° C. for 7 days. Cholesterol band were confirmed by comparing the band appeared in the film and that appeared in the iodine-stained thin layer. After scratching the cholesterol band, it was quantified by a liquid scintillation counter.

Syrian Golden Hamster = experiment: In vivo effect on plasma lipids in Syrian Golden Hamster; conditions: for HDL cholesterol, change versus normal diet control / LDL cholesterol, change versus normal diet control / Total cholesterol, change versus normal diet control / Triglyceride, change versus normal diet control / HDL cholesterol / LDL cholesterol / Total cholesterol / Triglyceride: 0.3 mg/kg/day oral, 14 days; for total cholesterol, LDL-cholesterol, and triglyceride levels: compared with lovastatin; for HDL cholesterol / LDL cholesterol / Total cholesterol / Triglyceride: normal diet, plasma
Experimental: In order to investigate the effect of the compound of formula (I) of the invention, the compound was orally administered into male Syrian Golden Hamsters having weights of 90~110 g for two weeks and blood was then taken from each animal. Plasma lipids, i.e., total cholesterol, LDL-cholesterol,HDL-cholesterol and triglycerides were analyzed using an automatic analyzer (Automatic analyzer model Hitachi 7150).
Male Syrian Golden Hamsters weighing 90~110 g distributed from Samyuk Animal Laboratory, Seoul, Korea were bred under the following conditions: they were maintained under reverse light cycle (light cycle: from 6 P.M to 6 A.M; dark cycle: from 6 A.M. to 6 P.M.). The food and water were supplied at 10 A.M. The commercially available standard rodent chows were used. The hamsters were divided into 6 or 7 animals per group. The animals were fasted for 12 hours before administrating the drug. Then, 5,6-dihydrodibenzo[a,g]quinolizinium salts (compound no. 2) dissolved in a 0.25% methyl cellulose solution was administered orally for 14 days at the indicated time per a day. After fasting animals for 24 hours from the last administration, blood was extracted using a cardiac puncture and plasma was then isolated. Plasma lipids, i.e., total cholesterol, LDL-cholesterol, HDL-cholesterol and triglyceride values were analyzed using Automatic Analyzer (Hitachi 7150).

sterol 14-reductase = target: T1, sterol 14-reductase (Rattus norvegicus, UniProt A0ACM8Q6X4); experiment: Inhibition of sterol 14-reductase in rat liver microsomes; assay type: biochemical; conditions: read-out: Enzyme Activity (relative in vitro activity for sterol 14-reductase, IC50 class)
T1 construct: microsome which was used as an enzyme source of sterol 14-reductase; from tissue; host or cells: liver microsomes of male Sprague-Dawley rats fed lovastatin and cholestyramine
T1 sequence (A0ACM8Q6X4 1-418): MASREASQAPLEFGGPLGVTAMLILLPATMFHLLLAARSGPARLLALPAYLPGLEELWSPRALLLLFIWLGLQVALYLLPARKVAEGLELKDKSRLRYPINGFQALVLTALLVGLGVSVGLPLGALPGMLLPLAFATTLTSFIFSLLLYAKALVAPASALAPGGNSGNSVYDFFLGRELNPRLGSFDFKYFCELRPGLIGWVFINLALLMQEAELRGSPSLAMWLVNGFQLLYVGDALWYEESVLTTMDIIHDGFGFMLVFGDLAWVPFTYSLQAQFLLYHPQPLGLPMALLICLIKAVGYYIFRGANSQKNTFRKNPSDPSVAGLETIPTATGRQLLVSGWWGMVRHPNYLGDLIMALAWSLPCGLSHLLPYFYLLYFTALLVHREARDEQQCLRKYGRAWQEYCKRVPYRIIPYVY
Experimental: 20 Male Sprague-Dawley rats weighing from 150 to 250 g have been fed for 7 days with a diet containing 0.1% (w/w) Lovastatin and 5% (w/w) Cholestyramine. The animals were fasted for 12 hours before excising liver tissues and then sacrificed by decapitation at midnight. An aqueous solution containing 0.25M of sucrose was injected into the hepatic portal vein to remove all the blood within the liver, and then, the liver was excised. The liver was homogenated with two volumes of buffer solution A (0.1M potassium phosphate, 1 mM reduced glutathione, 0.5 mM EDTA, 20% (v/v) glycerol, pH 7.4) by repeating pestles over 10 times and then, centrifuged with 900×g for 5 minutes to give a supernatant. The supernatant was centrifuged with 12,000×g for 20 minutes. The supernatant obtained was ultracentrifuged with 105,000×g for 90 minutes to give a microsome which was used as an enzyme source of sterol 14-reductase. Assay for sterol 14-reductase was carried out as follows:
60 mmol of 4,4-dimethyl-5α-cholesta-7,14-dien-3β-ol and 5,6-dihydrodibenzo-[a,g]quinolizinium salts (compound no. 2) dissolved in DMSO were added to an assay mixture (total volume 1.0 ml) containing 2 mg of the microsomal protein, 2 mM of NADPH and 25 mg of glucose plus 20 units of glucose oxidase with preincubations under nitrogen at 37° C. for 4 min. unless otherwise specified to establish anaerobic condition. Buffer A (0.1M potassium phosphate buffer, pH 7.4, including 1 mM reduced glutathione, 0.5 mM EDTA, and 20% (v/v) glycerol) used for incubation had been equilibrated with nitrogen, and nitrogen was exchanged for air in all sealed reaction flasks prior to the start of incubations. Incubation of the complete mixture was carried out anaerobically in sealed flasks for 10 min at 37° C. unless otherwise indicated. Incubations were terminated by the addition of 1 ml of ethanolic KOH followed by heating under reflux for 10 min. Sterols were extracted four times with 4 ml of petroleum ether, and the solvent was evaporated to dryness under a nitrogen stream. The resulting residue was dissolved in 200-500 μl of n-hexane for quantification by GLC at high sensitive attenuation. The activity of sterol 14-reductase was determined with the amount of the substrate wherein the double bonds of 14-carbon were reduced (for the amount reduced by 1 mg of the microsome protein for 1 minute).

[1] = Acute oral toxicity in SD rats; assay type: in vivo; conditions: rat, in vivo, po, rats
Experimental: (§1) Meanwhile, the toxicity of the compounds of the present invention was investigated as follows: i.e., the compounds were suspended into propylene glycol and then orally administered into each of 5 male and female SD rats at the age of 5-weeks that were fasted for 12 hours. Under the usual breeding conditions, general symptoms, weight change and lethal case of the above rats were monitored for two weeks. At the dose over 2,000 mg/kg of the compound nos. 2, 3, 9 and 68, general symptoms and the body weight change of the animals were normal and the lethal case was not observed.

SD rats = experiment: Acute oral toxicity in SD rats; assay type: in vivo; conditions: for general symptoms and the body weight change: oral dose over 2,000 mg/kg, monitored for two weeks; for lethal case: rat, in vivo
Experimental: as §1

Row | SMILES | inhibition of cholesterol biosynthesis in human HepG2 cell line (HepG2 cells) | HDL cholesterol, change versus normal diet control (Syrian Golden Hamster) | LDL cholesterol, change versus normal diet control (Syrian Golden Hamster) | Total cholesterol, change versus normal diet control (Syrian Golden Hamster) | Triglyceride, change versus normal diet control (Syrian Golden Hamster) | total cholesterol, LDL-cholesterol, and triglyceride levels (Syrian Golden Hamster) | HDL cholesterol (Syrian Golden Hamster) | LDL cholesterol (Syrian Golden Hamster) | Total cholesterol (Syrian Golden Hamster) | Triglyceride (Syrian Golden Hamster) | IC50 (sterol 14-reductase) | LD50 at 336 h ([1]; female) | LD50 at 336 h ([1]; male) | general symptoms and the body weight change (SD rats) | lethal case (SD rats)
1 | CCc1c2[n+](cc3c(OCc4ccc(C(F)(F)F)cc4)c(OC)ccc13)CCc1cc(OC)c(OC)cc1-2 [Compound No. 9, 5,6-dihydro-2,3-dimethoxybenzo[a]-13-ethyl-10-methoxy-9-(4-trifluoromethyl)benzyloxybenzo[g]quinolizinium chloride] | markedly inhibited | -6.0% | -45.4% | -37.0% | -43.6% | markedly decreased | 56.2 ± 3.0 mg/dL | 20.2 ± 2 mg/dL | 82.4 ± 7 mg/dL | 44.8 ± 5.5 mg/dL | < 1000 nM | > 2000 mg/kg | > 2500 mg/kg | normal | not observed
2 | CCCOc1cc2c(cc1OCCC)-c1c(CC)c3ccc(OCCC)c(OCc4ccc(C(F)(F)F)cc4)c3c[n+]1CC2 [Compound No. 68, 5,6-dihydro-2,3-dipropoxybenzo[a]-13-ethyl-10-propoxy-9-(4-trifluoromethyl)benzyloxybenzo[g]quinolizinium chloride] | markedly inhibited | -2.0% | -41.1% | -33.1% | -43.1% | markedly decreased | 58.6 ± 3 mg/dL | 21.8 ± 3 mg/dL | 87.4 ± 6 mg/dL | 45.2 ± 7 mg/dL | < 1000 nM | > 3000 mg/kg | > 3000 mg/kg | normal | not observed
